Test results reported in patent publication US20200038514A1, “FOLATE CONJUGATE FOR USE IN TARGETING TUMOR ASSOCIATED MACROPHAGES” (ENDOCYTE, INC., priority 2016, published 2020).

Tests used:
ST070 ovarian PDX tumors = assay: In vivo activity against ovarian tumors; parameters: species or system mice; conditions: Conjugate 5 0.5 μmol/kg SIW; EC1456 4.0 μmol/kg SIW; paclitaxel 15 mg/kg SIW; two weeks
Experimental: (§1) Mice were maintained and tumor volumes were measures according to Method 3.
(§2) Primary human Ovarian model ST070 fragments (2-4 mm in diameter) were inoculated subcutaneously at the right flank of each mouse. Mice were randomized into experimental groups of 7 mice each and test articles were injected through the lateral tail vein under sterile conditions in a volume of […] of phosphate-buffered saline (PBS).

TNBC PDX tumor = assay: In vivo activity against triple negative breast tumors (FIG. 10); parameters: species or system mice; conditions: Conjugate 5 0.27 μmol/kg BIW two weeks; erubulin mesylate 1.0 μmol/kg SIW two weeks
Experimental: as §1
as §2, with “TNBC” for “Ovarian”, “ST502 (2-4 mm in diameter) or primary human TNBC model ST738” for “ST070 fragments”

Compound | ovarian PDX tumor size compared to untreated control (ST070 ovarian PDX tumors) | TNBC PDX tumor size compared to untreated control (TNBC PDX tumor)
CC(=O)O[C@H]1C(=O)[C@@]2(C)[C@H]([C@H](OC(=O)c3ccccc3)[C@]3(O)C[C@H](OC(=O)[C@H](O)[C@@H](NC(=O)c4ccccc4)c4ccccc4)C(C)=C1C3(C)C)[C@]1(OC(C)=O)CO[C@@H]1C[C@@H]2O [paclitaxel, reference compound] | did not decrease ovarian PDX tumor size | –
erubulin mesylate [reference compound] | – | did not decrease TNBC PDX tumor size
